33 compounds from the RepoRT retention time repository can be followed below.

The series is described as follows: HILIC, Waters ACQUITY UPLC BEH Amide, 100 × 2.1 mm, 1.7 µm; A: water + 0.125% formic acid + 10 mM ammonium formate; B: 5% water + 95% acetonitrile + 0.125% formic acid + 10 mM ammonium formate; gradient (min/%B) 0/100 2/100 7.7/70 9.5/40 10.25/30 12.75/100 17/100. The following applies: stereoisomer not certain.
As for `CC1CN(CCCn2c3ccccc3c3ccccc32)CC(C)N1` (stereo not drawn) [Rimcazole], the LC retention time stood at 2.87 min. With `Cc1nc2n(c(=O)c1CCN1CCC(c3noc4cc(F)ccc34)CC1)CCCC2` [Risperidone], the LC retention time was determined as 3.52 min.

On to `CC(C)c1nc(CN(C)C(=O)NC(C(=O)NC(Cc2ccccc2)CC(O)C(Cc2ccccc2)NC(=O)OCc2cncs2)C(C)C)cs1` (stereo not drawn) [Ritonavir], for which the LC retention time amounted to 1.15 min.

Turning to `CN(C)CCc1c[nH]c2ccc(Cn3cncn3)cc12` [Rizatriptan], the LC retention time came out at 5.11 min. With `CS(=O)(=O)c1ccc(C2=C(c3ccccc3)C(=O)OC2)cc1` [Rofecoxib] the figure was 0.97 min; with `COc1ccc(C2CNC(=O)C2)cc1OC1CCCC1` (stereo not drawn) [Rolipram], 1.12 min. Turning to `CCCN1CCCCC1C(=O)Nc1c(C)cccc1C` (stereo not drawn) [Ropivacaine], the LC retention time amounted to 2.49 min. The value for `CN(CCOc1ccc(CC2SC(=O)NC2=O)cc1)c1ccccn1` (stereo not drawn) [Rosigltazone] was 1.24 min; that for `CC(=O)OCC(=O)NCCCOc1cccc(CN2CCCCC2)c1` [Roxane] was 3.01 min; that for `CN1CCN(c2c(F)cc3c(=O)c(C(=O)O)cn4c3c2SCC4)CC1` [Rufloxacin] was 4.65 min.

Take `CC1OC(OCC2OC(Oc3c(-c4ccc(O)c(O)c4)oc4cc(O)cc(O)c4c3=O)C(O)C(O)C2O)C(O)C(O)C1O` (stereo not drawn) [Rutin]: the LC retention time amounted to 6.6 min.

As to `Nc1ncnc2c1ncn2C1OC(CSCCC(N)C(=O)O)C(O)C1O` (stereo not drawn) [S-Adenosyl-homocysteine], the LC retention time came to 8.85 min. With `C[S+](CCC(N)C(=O)[O-])CC1OC(n2cnc3c(N)ncnc32)C(O)C1O` (stereo not drawn) [S-Adenosyl-methionine] the figure was 9.7 min; with `CN=C(NC)NCCCC(N)C(=O)O` (stereo not drawn) [SDMA], 8.49 min. The value for `OCc1ccccc1OC1OC(CO)C(O)C(O)C1O` (stereo not drawn) [Salicin] was 4.48 min; that for `OCc1cc(C(O)CNCCCCCCOCCCCc2ccccc2)ccc1O` (stereo not drawn) [Salmeterol] was 4.75 min. The value for `CC(C)(C)NC(=O)C1CC2CCCCC2CN1CC(O)C(Cc1ccccc1)NC(=O)C(CC(N)=O)NC(=O)c1ccc2ccccc2n1` (stereo not drawn) [Saquinavir] was 2.85 min. Turning to `CNCC(=O)O` [Sarcosine], the LC retention time is 7.82 min. As for `CN1C2CC(OC(=O)C(CO)c3ccccc3)CC1C1OC12` (stereo not drawn) [Scopolamine], the LC retention time is 3.75 min. The value for `COc1cc2ccc(=O)oc2cc1O` [Scopoletin] was 1.16 min. Take `Cc1ncc([N+](=O)[O-])n1CC(C)O` (stereo not drawn) [Secnidazole]: the LC retention time is 1.12 min. With `C#CCN(C)C(C)Cc1ccccc1` (stereo not drawn) [Selegiline] the figure was 1.5 min; with `NC(CO)C(=O)O` (stereo not drawn) [Serine], 8.73 min; with `NCCc1c[nH]c2ccc(O)cc12` [Serotonin], 1.44 min.

Consider `CNC1CCC(c2ccc(Cl)c(Cl)c2)c2ccccc21` (stereo not drawn) [Sertraline], for which the LC retention time turned out to be 2.74 min. The value for `CC(C)CC(N(C)C)C1(c2ccc(Cl)cc2)CCC1` (stereo not drawn) [Sibutramine] was 1.86 min.

`COc1cc(C=CC(=O)O)cc(OC)c1O` [Sinapic acid]: the LC retention time came out at 1.41 min. For the compound `O=P(O)(O)OCC(O)C(O)C(O)C(O)CO` (stereo not drawn) [Sorbitol-6-phosphate], the LC retention time turned out to be 9.75 min.

Regarding `CC(C)NCC(O)c1ccc(NS(C)(=O)=O)cc1` (stereo not drawn) [Sotalol], the LC retention time was 4.87 min. On to `NCCCCNCCCN` [Spermidine], for which the LC retention time was found to be 6.98 min. With `NCCCNCCCCNCCCN` [Spermine] the figure was 7.24 min.

Take `C[N+]1(C)CCCC1C(=O)[O-]` (stereo not drawn) [Stachydrine]: the LC retention time was determined as 7.1 min.

On to `CC12Cc3cn[nH]c3CC1CCC1C2CCC2(C)C1CCC2(C)O` (stereo not drawn) [Stanozolol], for which the LC retention time was determined as 1.19 min.
